T/C data for 22 compounds are collected here from PubChem BioAssay AID328 (DTP/NCI, 2004).

The structures appear in SMILES notation. Where “and” joins values, the source holds several entries; their conditions need not be identical. Identical values can stand only once. Inconclusive results and toxic doses are left out.

The subject of the assay is BDF1 mice, P388 leukemia ip, median survival T/C. Put plainly: NCI In Vivo Anticancer Drug Screen. Data for tumor model P388 Leukemia (intraperitoneal) in B6D2F1 (BDF1) mice. As to conditions: endpoint: median survival time, higher = longer survival. The method in brief:
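Antitumour effect was judged in vivo: survival in drug-treated mice, normalised to that of vehicle-dosed controls, gives the reported T/C.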

The mark [1] stands for this setting: dose: 100.0 mg/kg/injection, schedule: Q04DX003 (ip), vehicle: saline with Tween-80.
Setting [2] is: dose: 200.0 mg/kg/injection, schedule: Q04DX003 (ip), vehicle: saline with Tween-80.
The mark [3] stands for this setting: dose: 100.0 mg/kg/injection, schedule: Q01DX009 (ip), vehicle: Klucel (hydroxypropylcellulose) (HPC).
Where [4] appears, read: dose: 200.0 mg/kg/injection, schedule: Q01DX009 (ip), vehicle: Klucel (hydroxypropylcellulose) (HPC).
Setting [5] is: dose: 400.0 mg/kg/injection, schedule: Q01DX009 (ip), vehicle: Klucel (hydroxypropylcellulose) (HPC).
Setting [6] is: dose: 25.0 mg/kg/injection, schedule: Q04DX003 (ip), vehicle: Klucel (hydroxypropylcellulose) (HPC).
Where [7] appears, read: dose: 50.0 mg/kg/injection, schedule: Q04DX003 (ip), vehicle: Klucel (hydroxypropylcellulose) (HPC).
The mark [8] stands for this setting: dose: 100.0 mg/kg/injection, schedule: Q04DX003 (ip), vehicle: Klucel (hydroxypropylcellulose) (HPC).
[9] abbreviates: dose: 25.0 mg/kg/injection, schedule: Q01DX009 (ip), vehicle: saline.
[10] abbreviates: dose: 200.0 mg/kg/injection, schedule: Q04DX003 (ip), vehicle: Klucel (hydroxypropylcellulose) (HPC).
Setting [11] is: dose: 400.0 mg/kg/injection, schedule: Q04DX003 (ip), vehicle: Klucel (hydroxypropylcellulose) (HPC).
Setting [12] is: dose: 100.0 mg/kg/injection, schedule: Q01DX009 (ip), vehicle: saline with Tween-80.
The mark [13] stands for this setting: dose: 200.0 mg/kg/injection, schedule: Q01DX009 (ip), vehicle: saline with Tween-80.
Setting [14] is: dose: 50.0 mg/kg/injection, schedule: Q01DX009 (ip), vehicle: saline with Tween-80.
The mark [15] stands for this setting: dose: 100.0 mg/kg/injection, schedule: Q01DX001 (ip), vehicle: Klucel (hydroxypropylcellulose) (HPC).
[16] abbreviates: dose: 200.0 mg/kg/injection, schedule: Q01DX001 (ip), vehicle: Klucel (hydroxypropylcellulose) (HPC).
The mark [17] stands for this setting: dose: 400.0 mg/kg/injection, schedule: Q01DX001 (ip), vehicle: Klucel (hydroxypropylcellulose) (HPC).

Take `CCN(CC)CCNc1ncnc2c1cnn2-c1ccc(Cl)cc1`: the T/C runs as follows: under setting [1], 109 % of control; under setting [2], 109 % of control.

In the case of `O/N=c1\cc(-c2ccccc2)oc2ccccc12`, the T/C (dose: 3.13 mg/kg/injection, schedule: Q01DX009 (ip), vehicle: saline with Tween-80) is 95 % of control; the T/C (dose: 6.25 mg/kg/injection, schedule: Q01DX009 (ip), vehicle: saline with Tween-80) was 95 % of control; the T/C (dose: 12.5 mg/kg/injection, schedule: Q01DX009 (ip), vehicle: saline with Tween-80) is 112 % of control; the T/C (dose: 25.0 mg/kg/injection, schedule: Q01DX009 (ip), vehicle: saline with Tween-80) was 123 % of control.

Take `Cn1cnccc1=O`: the T/C (dose: 50.0 mg/kg/injection, schedule: Q01DX009 (ip), vehicle: water) is 122 % of control; the T/C (dose: 100.0 mg/kg/injection, schedule: Q01DX009 (ip), vehicle: water) was 121 % of control; the T/C (dose: 100.0 mg/kg/injection, schedule: Q04DX003 (ip), vehicle: water) is 118 % of control; the T/C (dose: 200.0 mg/kg/injection, schedule: Q01DX009 (ip), vehicle: water) is 102 % of control; the T/C (dose: 200.0 mg/kg/injection, schedule: Q04DX003 (ip), vehicle: water) is 106 % of control; the T/C (dose: 400.0 mg/kg/injection, schedule: Q01DX009 (ip), vehicle: water) is 103 % of control. In addition, where the note is “dose: 400.0 mg/kg/injection, schedule: Q04DX003 (ip), vehicle: water”, the T/C is 115 % of control.

As to `CCOC(CNC(=O)OCc1ccccc1)OCC`, the T/C runs as follows: under setting [3], 105 % of control; under setting [4], 100 % of control; under setting [5], 105 % of control.

For the compound `c1ccc(COc2ccccn2)cc1`, the T/C is 90 % of control under setting [6], 95 % of control under setting [7] and 90 % of control under setting [8].

For the compound `O=C(OC[P+](c1ccccc1)(c1ccccc1)c1ccccc1)c1ccccc1`, the T/C is, setting by setting: (dose: 3.13 mg/kg/injection, schedule: Q01DX009 (ip), vehicle: saline) 112 % of control; under setting [9], 122 % of control; (dose: 50.0 mg/kg/injection, schedule: Q01DX009 (ip), vehicle: saline) 91 % of control.

For `Cc1c(C(=O)O)nc(CC(O)C(Cl)(Cl)Cl)[nH]c1=O` (stereo unspecified), the T/C runs as follows: under setting [6], 98 % of control; under setting [7], 97 % of control; under setting [8], 103 % of control; under setting [10], 100 % of control; under setting [11], 96 % of control.

Take `C/C=C/CCCCCCCC(=O)OCCCC`: the T/C was 109 % of control under setting [12]; 110 % of control under setting [1]; 95 % of control under setting [13]; 105 % of control under setting [2]; 113 % of control (dose: 400.0 mg/kg/injection, schedule: Q01DX009 (ip), vehicle: saline with Tween-80); 120 % of control (dose: 400.0 mg/kg/injection, schedule: Q04DX003 (ip), vehicle: saline with Tween-80).

In the case of `CN(C)C(=S)S`, the T/C (dose: 50.0 mg/kg/injection, schedule: Q04DX003 (ip), vehicle: saline) was 103 % of control; the T/C (dose: 100.0 mg/kg/injection, schedule: Q04DX003 (ip), vehicle: saline) was 103 % of control; the T/C (dose: 200.0 mg/kg/injection, schedule: Q04DX003 (ip), vehicle: saline) was 105 % of control; the T/C (dose: 400.0 mg/kg/injection, schedule: Q04DX003 (ip), vehicle: saline) was 117 % of control.

Turning to `CCS(=O)(=O)C(Br)CBr` (stereo unspecified), the T/C by setting is: (dose: 25.0 mg/kg/injection, schedule: Q01DX009 (ip), vehicle: Klucel (hydroxypropylcellulose) (HPC)) 114 % of control; (dose: 50.0 mg/kg/injection, schedule: Q01DX009 (ip), vehicle: Klucel (hydroxypropylcellulose) (HPC)) 114 % of control; under setting [3], 105 % of control and 107 % of control.

For the compound `CC(=O)/C=N/Nc1ccccc1`, the T/C is 109 % of control under setting [7]; 110 % of control (dose: 66.0 mg/kg/injection, schedule: Q04DX003 (ip), vehicle: Klucel (hydroxypropylcellulose) (HPC)); 120 % of control under setting [8]; 120 % of control (dose: 150.0 mg/kg/injection, schedule: Q04DX003 (ip), vehicle: Klucel (hydroxypropylcellulose) (HPC)); 95 % of control under setting [10].

For `O=[N+]([O-])c1ccc2c(c1)[nH]c1ccccc12`, the T/C was 113 % of control under setting [14], 115 % of control under setting [12] and 114 % of control under setting [13].

Consider `CN(C)P(Cl)(Cc1ccccc1)(c1ccccc1)c1ccccc1`, for which the T/C is 108 % of control (dose: 3.0 mg/kg/injection, schedule: Q01DX009 (ip), vehicle: saline); 110 % of control (dose: 3.0 mg/kg/injection, schedule: Q04DX003 (ip), vehicle: saline); 116 % of control and 122 % of control (dose: 6.0 mg/kg/injection, schedule: Q01DX009 (ip), vehicle: saline); 105 % of control (dose: 6.0 mg/kg/injection, schedule: Q04DX003 (ip), vehicle: saline); 110 % of control (dose: 12.0 mg/kg/injection, schedule: Q04DX003 (ip), vehicle: saline).

For `Cc1nc2ccc3nc(N)nc(N)c3c2nc1C`, the T/C was 104 % of control (dose: 50.0 mg/kg/injection, schedule: Q01DX001 (ip), vehicle: saline with Tween-80); 101 % of control (dose: 100.0 mg/kg/injection, schedule: Q01DX001 (ip), vehicle: saline with Tween-80); 111 % of control (dose: 200.0 mg/kg/injection, schedule: Q01DX001 (ip), vehicle: saline with Tween-80).

With `Cc1cc(S(=O)(=O)c2ccc(Cl)c(C)c2)ccc1Cl`, the T/C under setting [14] is 105 % of control, the T/C under setting [12] was 100 % of control and the T/C under setting [13] is 91 % of control.

Take `CC(C)Cc1c(N)nc(=S)[nH]c1C(=O)O`: the T/C is, setting by setting: under setting [7], 89 % of control; under setting [8], 107 % of control; under setting [10], 96 % of control.

For `Cc1ccccc1C1c2ccccc2C(=O)c2cccc(C)c21` (stereo unspecified), the T/C under setting [15] is 104 % of control; the T/C under setting [3] is 105 % of control; the T/C under setting [8] is 100 % of control; the T/C under setting [16] is 109 % of control; the T/C under setting [4] was 100 % of control; the T/C under setting [10] was 95 % of control. Further, the T/C is 100 % of control under setting [17], 100 % of control under setting [5] and 108 % of control under setting [11].

`Cc1ccc(CSc2ssc(=S)c2-c2ccccc2)cc1`: the T/C is, setting by setting: under setting [15], 104 % of control; under setting [3], 110 % of control; under setting [16], 104 % of control; under setting [4], 110 % of control; under setting [17], 109 % of control; under setting [5], 115 % of control.

Regarding `Brc1ccc(C#Cc2ccccc2)cc1`, the T/C is, setting by setting: under setting [15], 104 % of control; under setting [16], 108 % of control; under setting [17], 108 % of control.

Turning to `CC(=O)Oc1ccc[nH]c1=O`, the T/C is, setting by setting: (dose: 200.0 mg/kg/injection, schedule: Q01DX009 (ip), vehicle: saline) 100 % of control; (dose: 264.0 mg/kg/injection, schedule: Q01DX009 (ip), vehicle: saline with Tween-80) 115 % of control; (dose: 400.0 mg/kg/injection, schedule: Q01DX009 (ip), vehicle: saline) 150 % of control; (dose: 600.0 mg/kg/injection, schedule: Q01DX009 (ip), vehicle: saline with Tween-80) 115 % of control; (dose: 600.0 mg/kg/injection, schedule: Q01DX009 (ip), vehicle: saline) 95 % of control.

Regarding `NC(=O)OCCI`, the T/C was 100 % of control (dose: 50.0 mg/kg/injection, schedule: Q04DX003 (ip), vehicle: other); 120 % of control (dose: 100.0 mg/kg/injection, schedule: Q04DX003 (ip), vehicle: other); 150 % of control and 177 % of control (dose: 132.0 mg/kg/injection, schedule: Q04DX003 (ip), vehicle: Klucel (hydroxypropylcellulose) (HPC)); 90 % of control under setting [10]; 155 % of control (dose: 200.0 mg/kg/injection, schedule: Q04DX003 (ip), vehicle: other).

As for `CN(C)CCC(=O)c1ccccc1`, the T/C under setting [9] is 100 % of control.
